What is called pIC50 is the IC50 on a negative log10 scale, so that one unit is a factor of ten. A low value points to a large IC50.

pIC50: −log10 of the molar value.

The test deals with full-length human PIKFYVE (Homo sapiens (Human), UniProt Q9Y2I7, L932S/Q1183K/Q995L/S1033A/S696N/T998S). Briefly: PIKfyve biochemical assay (ADP-Glo Kinase assay, Carna Biosciences). The conditions noted are these: class symbols. An excerpt: PIKfyve Biochemical Assay. The biochemical […] inhibition assays were run by Carna Biosciences according to proprietary methodology based on the Promega […] Kinase assay. […] NP_055855.2] was expressed as N-terminal GST-fusion protein (265 kDa) using baculovirus expression system. GST-PIKFYVE was purified by using glutathione sepharose chromatography and used in an ADP-GloTM Kinase assay (Promega). Reactions were set up by adding the test compound solution, substrate solution, ATP solution and kinase solution, each at 4× final concentrations. Reactions were prepared with assay buffer (50 mM MOPS, 1 mM DTT, pH7.2), mixed, and incubated in black 384 well polystyrene plates for 1 hour at room temperature. ADP-Glo^TM reagent was then added for 40 minutes, followed by kinase detection reagent for an additional 40 minutes. The kinase activity was evaluated by detecting relative light units on a luminescence plate reader. […] IC50 values were calculated from concentration vs % inhibition curves by fitting to a four-parameter logistic curve. […] The biochemical […] inhibition assays were run by Carna Biosciences according to proprietary methodology based on the Promega ADP-GloTM Kinase assay. […] GST-PIKFYVE was purified by using glutathione sepharose chromatography and used in an ADP-GIoTM Kinase assay (Promega). Reactions were set up by adding the test compound solution, substrate solution, ATP solution and kinase solution, each at 4× final concentrations. Reactions were prepared with assay buffer (50 mM MOPS, 1 mM DTT, pH7.2), mixed, and incubated in black 384 well polystyrene plates for 1 hour at room temperature. ADP-GIoTM reagent was then added for 40 minutes, followed by kinase detection reagent for an additional 40 minutes. The kinase activity was evaluated by detecting relative light units on a luminescence plate reader. […] IC50 values were calculated from concentration vs % inhibition curves by fitting to a four-parameter logistic curve. […] The same compounds were also tested in both FAB1 and PIKFYVE TDP-43 yeast models.
Chain of full-length human PIKFYVE (Q9Y2I7 whole entry S696N/L932S/Q995L/T998S/S1033A/Q1183K, the tested form may be a part): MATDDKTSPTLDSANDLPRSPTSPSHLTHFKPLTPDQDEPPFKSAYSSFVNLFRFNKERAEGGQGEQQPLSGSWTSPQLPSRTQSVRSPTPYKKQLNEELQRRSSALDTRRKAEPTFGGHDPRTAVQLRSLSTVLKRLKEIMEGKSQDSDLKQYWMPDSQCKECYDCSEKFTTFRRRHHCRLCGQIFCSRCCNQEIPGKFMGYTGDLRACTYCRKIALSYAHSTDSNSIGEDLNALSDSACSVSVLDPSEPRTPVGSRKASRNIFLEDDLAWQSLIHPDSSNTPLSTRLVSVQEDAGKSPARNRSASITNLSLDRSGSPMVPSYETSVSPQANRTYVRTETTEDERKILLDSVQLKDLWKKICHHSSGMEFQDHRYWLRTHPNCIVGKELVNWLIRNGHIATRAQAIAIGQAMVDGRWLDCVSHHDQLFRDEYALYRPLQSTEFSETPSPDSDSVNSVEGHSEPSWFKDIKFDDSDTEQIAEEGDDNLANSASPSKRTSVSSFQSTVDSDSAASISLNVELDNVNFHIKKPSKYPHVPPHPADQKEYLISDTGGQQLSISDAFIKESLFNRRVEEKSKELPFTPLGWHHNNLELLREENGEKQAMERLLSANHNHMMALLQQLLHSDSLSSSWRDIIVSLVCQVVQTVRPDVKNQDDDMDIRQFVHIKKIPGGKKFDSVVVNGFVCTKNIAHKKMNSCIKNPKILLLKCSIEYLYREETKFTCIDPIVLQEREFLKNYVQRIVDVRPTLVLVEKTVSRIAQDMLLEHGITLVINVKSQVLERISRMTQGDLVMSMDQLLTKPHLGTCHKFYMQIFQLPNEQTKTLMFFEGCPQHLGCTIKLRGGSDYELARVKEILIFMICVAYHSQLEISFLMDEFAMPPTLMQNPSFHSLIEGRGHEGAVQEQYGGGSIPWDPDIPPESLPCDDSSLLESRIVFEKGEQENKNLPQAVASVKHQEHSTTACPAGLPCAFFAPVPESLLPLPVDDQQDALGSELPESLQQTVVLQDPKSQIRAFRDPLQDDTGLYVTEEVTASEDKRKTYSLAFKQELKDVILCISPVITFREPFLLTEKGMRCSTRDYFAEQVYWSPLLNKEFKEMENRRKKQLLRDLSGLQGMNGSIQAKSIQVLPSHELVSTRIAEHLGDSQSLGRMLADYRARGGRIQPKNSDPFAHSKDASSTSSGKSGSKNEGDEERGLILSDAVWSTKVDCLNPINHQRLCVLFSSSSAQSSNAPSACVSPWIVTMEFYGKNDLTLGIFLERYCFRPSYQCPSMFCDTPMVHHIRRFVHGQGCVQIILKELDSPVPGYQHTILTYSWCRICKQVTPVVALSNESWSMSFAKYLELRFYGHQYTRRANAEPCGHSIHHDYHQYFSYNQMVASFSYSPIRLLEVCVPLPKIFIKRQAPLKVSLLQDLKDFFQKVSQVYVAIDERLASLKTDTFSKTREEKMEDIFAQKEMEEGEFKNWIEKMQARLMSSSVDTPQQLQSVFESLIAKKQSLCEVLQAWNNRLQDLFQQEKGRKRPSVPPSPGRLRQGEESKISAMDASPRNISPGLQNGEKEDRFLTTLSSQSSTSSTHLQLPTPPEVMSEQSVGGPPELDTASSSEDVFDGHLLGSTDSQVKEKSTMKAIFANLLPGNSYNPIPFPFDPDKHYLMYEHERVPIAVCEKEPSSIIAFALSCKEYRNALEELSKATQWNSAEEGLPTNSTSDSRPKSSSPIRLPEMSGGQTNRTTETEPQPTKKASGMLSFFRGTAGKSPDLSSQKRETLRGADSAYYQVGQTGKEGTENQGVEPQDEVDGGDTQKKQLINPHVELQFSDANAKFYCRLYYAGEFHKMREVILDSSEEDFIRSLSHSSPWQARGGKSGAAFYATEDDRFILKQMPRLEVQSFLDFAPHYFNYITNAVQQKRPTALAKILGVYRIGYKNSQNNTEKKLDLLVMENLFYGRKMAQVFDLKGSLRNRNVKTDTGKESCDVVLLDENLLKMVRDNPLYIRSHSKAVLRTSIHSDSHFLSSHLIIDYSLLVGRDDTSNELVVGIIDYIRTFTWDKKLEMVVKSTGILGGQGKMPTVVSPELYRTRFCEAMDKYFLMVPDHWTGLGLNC
On the technique in general: ADP-Glo first removes unused ATP, then detects ADP through luciferase.
Turning to `CN1CC(=O)N(c2cc(N3CCOCC3)n3nc(-c4ccncc4)cc3n2)CC1c1ccccc1` (stereo not shown) [Compound 136, 4-methyl-1-(7-morpholino-2-(pyridin-4-yl)pyrazolo[1,5-a]pyrimidin-5-yl)-5-phenylpiperazin-2-one], the negative-log IC50 (pIC50) is 5.00 to 6.00.
The value for `c1ccc(CN2CCCC2c2cc(N3CCOCC3)n3nc(-c4ccncc4)cc3n2)cc1` (stereo not shown) [Compound 124, 4-(5-(1-benzylpyrrolidin-2-yl)-2-(pyridin-4-yl)pyrazolo[1,5-a]pyrimidin-7-yl)morpholine] was 5.00 to 6.00; that for `O=C1CC(c2ccccc2)CN1c1cc(N2CCOCC2)n2nc(-c3ccncc3)cc2n1` (stereo not shown) [Compound 25, 1-(7-morpholino-2-(pyridin-4-yl)pyrazolo[1,5-a]pyrimidin-5-yl)-4-phenylpyrrolidin-2-one] was 5.00 to 6.00.
With `c1cncc(-n2nccc2-c2cc(N3CCOCC3)n3nc(-c4ccncc4)cc3n2)c1` [Compound 12, 4-(5-(1-(pyridin-3-yl)-1H-pyrazol-5-yl)-2-(pyridin-4-yl)pyrazolo[1,5-a]pyrimidin-7-yl)morpholine], the negative-log IC50 (pIC50) was 5.00 to 6.00.
The compound `c1cncc(-c2ccn(-c3cc(N4CCOCC4)n4nc(C5CCCO5)cc4n3)n2)c1` (stereo not shown) [Compound 92, 4-(5-(3-(pyridin-3-yl)-1H-pyrazol-1-yl)-2-(tetrahydrofuran-2-yl)pyrazolo[1,5-a]pyrimidin-7-yl)morpholine] had a negative-log IC50 (pIC50) of 5.00 to 6.00.
The result for `c1ccc(Cc2nccc(-c3cc(N4CCOCC4)n4nc(-c5ccncc5)cc4n3)n2)cc1` [Compound 140, 4-(5-(2-benzylpyrimidin-4-yl)-2-(pyridin-4-yl)pyrazolo[1,5-a]pyrimidin-7-yl)morpholine] reads 6.00 to 7.00.
The value for `c1ccc(Cc2cccnc2-c2cc(N3CCOCC3)n3nc(-c4ccncc4)cc3n2)cc1` [Compound 40, 4-(5-(3-benzylpyridin-2-yl)-2-(pyridin-4-yl)pyrazolo[1,5-a]pyrimidin-7-yl)morpholine] was 5.00 to 6.00.
For `c1cc(-c2cc3nc(-n4cc5c(n4)CCCC5)cc(N4CCOCC4)n3n2)ccn1` [Compound 85, 4-(2-(pyridin-4-yl)-5-(4,5,6,7-tetrahydro-2H-indazol-2-yl)pyrazolo[1,5-a]pyrimidin-7-yl)morpholine], the pIC50 was 6.00 to 7.00.
In turn, `Fc1cccc(-c2nccc(-c3cc(N4CCOCC4)n4nc(-c5ccncc5)cc4n3)n2)c1` [Compound 139, 4-(5-(2-(3-fluorophenyl)pyrimidin-4-yl)-2-(pyridin-4-yl)pyrazolo[1,5-a]pyrimidin-7-yl)morpholine] had a negative-log IC50 (pIC50) of 6.00 to 7.00.
With `c1ccc(-c2nc(-c3cc(N4CCOCC4)n4nc(-c5ccncc5)cc4n3)ns2)cc1` [Compound 128, 4-(5-(5-phenyl-1,2,4-thiadiazol-3-yl)-2-(pyridin-4-yl)pyrazolo[1,5-a]pyrimidin-7-yl)morpholine], the pIC50 is 7.00 to 8.00.
The result for `c1c(-n2cc3c(n2)CCOC3)nc2cc(C3CCCO3)nn2c1N1CCOCC1` (stereo not shown) [Compound 99, 2-(7-morpholino-2-(tetrahydrofuran-2-yl)pyrazolo[1,5-a]pyrimidin-5-yl)-2,4,6,7-tetrahydropyrano[4,3-c]pyrazole] reads under 5.00; that for `CN1C(=O)CN(c2cc(N3CCOCC3)n3nc(-c4ccncc4)cc3n2)CC1c1ccccc1` (stereo not shown) [Compound 37, 1-methyl-4-(7-morpholino-2-(pyridin-4-yl)pyrazolo[1,5-a]pyrimidin-5-yl)-6-phenylpiperazin-2-one], 5.00 to 6.00.
The result for `c1cc(-c2cc3nc(-n4ccc(C5CCNCC5)n4)cc(N4CCOCC4)n3n2)ccn1` [Compound 62, 4-(5-(3-(piperidin-4-yl)-1H-pyrazol-1-yl)-2-(pyridin-4-yl)pyrazolo[1,5-a]pyrimidin-7-yl)morpholine] reads 6.00 to 7.00.
`O=C(CCCc1cc(N2CCOCC2)n2nc(-c3ccncc3)cc2n1)c1ccccc1` [Compound 113, 4-(7-morpholino-2-(pyridin-4-yl)pyrazolo[1,5-a]pyrimidin-5-yl)-1-phenylbutan-1-one] gave a negative logarithm of the IC50 (pIC50) of 6.00 to 7.00.
For the compound `CN1CCCC(c2cn(-c3cc(N4CCOCC4)n4nc(-c5ccncc5)cc4n3)cn2)C1` (stereo not shown) [Compound 18, 4-(5-(4-(1-methylpiperidin-3-yl)-1H-imidazol-1-yl)-2-(pyridin-4-yl)pyrazolo[1,5-a]pyrimidin-7-yl)morpholine], the pIC50 was 5.00 to 6.00.
In turn, `Oc1cc(C2CCOCC2)nn1-c1cc(N2CCOCC2)n2nc(-c3ccncc3)cc2n1` [Compound 50, 1-(7-morpholino-2-(pyridin-4-yl)pyrazolo[1,5-a]pyrimidin-5-yl)-3-(tetrahydro-2H-pyran-4-yl)-1H-pyrazol-5-ol] showed a pIC50 of 6.00 to 7.00.
The value for `O=C1COC(c2ccccc2)CN1c1cc(N2CCOCC2)n2nc(-c3ccncc3)cc2n1` (stereo not shown) [Compound 135, 4-(7-morpholino-2-(pyridin-4-yl)pyrazolo[1,5-a]pyrimidin-5-yl)-6-phenylmorpholin-3-one] was 5.00 to 6.00; that for `N#Cc1cc(N2CCOCC2)n2nc(-c3ccncc3)cc2n1` [Compound 103, 7-morpholino-2-(pyridin-4-yl)pyrazolo[1,5-a]pyrimidine-5-carbonitrile] was under 5.00; that for `CNC(COc1cc(N2CCOCC2)n2nc(-c3ccncc3)cc2n1)c1cccc(C)c1` (stereo not shown) [Compound 126, N-methyl-2-((7-morpholino-2-(pyridin-4-yl)pyrazolo[1,5-a]pyrimidin-5-yl)oxy)-1-(m-tolyl)ethan-1-amine] was 5.00 to 6.00.
For `c1ccc(-c2ccn(-c3cc(N4CCOCC4)n4nc(-c5ccncc5)cc4n3)n2)nc1` [Compound 70, 4-(5-(3-(pyridin-2-yl)-1H-pyrazol-1-yl)-2-(pyridin-4-yl)pyrazolo[1,5-a]pyrimidin-7-yl)morpholine], the negative logarithm of the IC50 (pIC50) was 6.00 to 7.00.
Regarding `CN1CCCC(c2ccn(-c3cc(N4CCOCC4)n4nc(-c5ccncc5)cc4n3)n2)C1` (stereo not shown) [Compound 68, 4-(5-(3-(1-methylpiperidin-3-yl)-1H-pyrazol-1-yl)-2-(pyridin-4-yl)pyrazolo[1,5-a]pyrimidin-7-yl)morpholine], the pIC50 was 6.00 to 7.00.
Compound `CN1CCN(c2cc(N3CCOCC3)n3nc(-c4ccncc4)cc3n2)CC1c1ccccc1` (stereo not shown) [Compound 38, 4-(5-(4-methyl-3-phenylpiperazin-1-yl)-2-(pyridin-4-yl)pyrazolo[1,5-a]pyrimidin-7-yl)morpholine] gave a negative logarithm of the IC50 (pIC50) of 5.00 to 6.00.
As for `c1cc(-c2cc3nc(-n4ccc(-c5ccnnc5)n4)cc(N4CCOCC4)n3n2)ccn1` [Compound 69, 4-(5-(3-(pyridazin-4-yl)-1H-pyrazol-1-yl)-2-(pyridin-4-yl)pyrazolo[1,5-a]pyrimidin-7-yl)morpholine], the pIC50 is 6.00 to 7.00.
The value for `CC(C)(C)OC(=O)N1CCCC(c2cn(-c3cc(N4CCOCC4)n4nc(-c5ccncc5)cc4n3)cn2)C1` (stereo not shown) [Compound 15, tert-butyl 3-(1-(7-morpholino-2-(pyridin-4-yl)pyrazolo[1,5-a]pyrimidin-5-yl)-1H-imidazol-4-yl)piperidine-1-carboxylate] was 5.00 to 6.00.
Consider `CCOC(=O)Cc1cc(N2CCOCC2)n2nc(-c3ccncc3)cc2n1` [Compound 133, ethyl 2-(7-morpholino-2-(pyridin-4-yl)pyrazolo[1,5-a]pyrimidin-5-yl)acetate], for which the pIC50 is 5.00 to 6.00.
`Cc1ccccc1-c1cc(O)n(-c2cc(N3CCOCC3)n3nc(-c4ccncc4)cc3n2)n1` [Compound 46, 1-(7-morpholino-2-(pyridin-4-yl)pyrazolo[1,5-a]pyrimidin-5-yl)-3-(o-tolyl)-1H-pyrazol-5-ol]: the negative logarithm of the IC50 (pIC50) is 7.00 to 8.00.
The compound `c1ccc(-c2ccn(-c3cc(N4CCOCC4)n4nc(-c5ccncc5)cc4n3)n2)cc1` [Compound 148] showed a pIC50 of 7.00 to 8.00.
`O=C(/C=C/c1cc(N2CCOCC2)n2nc(-c3ccncc3)cc2n1)c1ccccc1` [Compound 109, (E)-3-(7-morpholino-2-(pyridin-4-yl)pyrazolo[1,5-a]pyrimidin-5-yl)-1-phenylprop-2-en-1-one] showed a negative logarithm of the IC50 (pIC50) of 5.00 to 6.00.
`CN1CCN(c2cc(N3CCOCC3)n3nc(-c4ccncc4)cc3n2)C(=O)C1c1ccccc1` (stereo not shown) [Compound 27, 4-methyl-1-(7-morpholino-2-(pyridin-4-yl)pyrazolo[1,5-a]pyrimidin-5-yI)-3-phenylpiperazin-2-one] had a pIC50 of 5.00 to 6.00.
For `c1ccc(CC2COCCN2c2cc(N3CCOCC3)n3nc(-c4ccncc4)cc3n2)cc1` (stereo not shown) [Compound 36, 3-benzyl-4-(7-morpholino-2-(pyridin-4-yl)pyrazolo[1,5-a]pyrimidin-5-yl)morpholine], the pIC50 is 5.00 to 6.00.
Take `O=C(/C=C/c1ccccc1)c1cc(N2CCOCC2)n2nc(-c3ccncc3)cc2n1` [Compound 114, 1-(7-morpholino-2-(pyridin-4-yl)pyrazolo[1,5-a]pyrimidin-5-yl)-3-phenylprop-2-en-1-one]: the pIC50 was 5.00 to 6.00.
